Test results reported in patent US10473645B2, “Methods for identifying a receptor for a ligand and uses thereof” (UNIVERSITE DE GENEVE, priority 2014, dated 2019).

Key:
olfr145 = target: T1, olfr145 (Mus musculus, UniProt Q60882); assay: OR transcript downregulation by RNAseq after in vivo exposure; details: 5% odorant, 5 hours
T1 construct: from tissue; host or cells: main olfactory epithelium of living mice
Experimental: (§1) Animals were exposed to 5% acetophenone for 5 hours before RNA extraction (as previously described). cDNA libraries were generated with the Truseq RNA and DNA sample preparation kits after selection of polyA-containing mRNAs. Adapters for RNAseq multiplexing were added to the cDNAs. The cDNA libraries were sequenced with a HiSeq®2500 Sequencing system. 100 bp reads were mapped using Bowtie2 with a 28 bp seed. The differential gene expression analyses were performed with DESeq2. Because of the high sequence similarity between OR gene paralogs, some reads are mapped to multiple OR genes. These reads were removed from the analysis.
(§2) Mice (n=6) were exposed to 5% acetophenone or to a “neutral” control condition for 5 hours. An olfactory cDNA library corresponding to each animal was deep sequenced and the ratios of odorant receptor mRNA concentrations relative to controls were plotted (FIG. 3). […] Based on transcriptional downregulation levels observed by RNAseq following acetophenone exposure, a list of 26 candidate responsive ORs was determined (FIG. 3), that reached 74% decrease (Olfr145) or even over 80% (Olfr169) relative to controls. […] The transcript downregulation of 21 out of the 26 olfactory receptor candidates obtained by RNAseq was confirmed by qPCR.

Olfr1377 [1] = details: expressed in HEK cells; previously shown; read-out: EC50 as agonist of Olfr1377; cited from earlier work
Olfr1377 [2] = assay: OR transcript downregulation by RNAseq after in vivo exposure; parameters: species or system mouse; details: 5% odorant, 5 hours, reduction larger than 20% = downregulated
Experimental: as §1, §2

Olfr160 = assay: as above; parameters: species or system mouse; details: 5% odorant, 5 hours, reduction larger than 20% = downregulated
Experimental: as §1, §2

Olfr169 = assay: as above; parameters: species or system mouse; details: 5% odorant, 5 hours
Experimental: as §1, §2

Olfr983 [3] = assay: as above; parameters: species or system mouse; details: 5% odorant, 5 hours, reduction larger than 20% = downregulated
Experimental: as §1, §2

OSNs expressing olfr1350 = assay: pS6 immunolabeling with OR in situ hybridization after odorant exposure; assay type: in vivo, mouse; parameters: key: y: neuronal activation (i.e. pS6 signal in a fraction of neuron exceeding 15% relative to controls); no pS6 signals; details: 5% acetophenone, 60 minutes
Experimental: (§3) In order to independently validate the identity of an acetophenone receptor obtained with the RNAseq approach, the potential colocalization following acetophenone exposure of a neuronal activity marker (the phosphorylated ribosomal protein S6 (pS6) (Knight et al., 2012, Cell, 151, 1126-1137) and specific olfactory receptors were evaluated. To this aim, in-situ hybridizations were performed on sections of olfactory tissue with probes targeting receptor mRNAs followed by immunolabeling of pS6. The probes used were directed against the transcripts of most of the ORs determined as responsive including Olfr983 transcripts (encoding a known acetophenone receptor), Olfr171 transcripts (encoding a known ethyl isobutyrate receptor), and Olfr145 transcripts, encoding a newly identified receptor by RNAseq. Before analysis, mice were exposed to either 5% acetophenone, 5% ethyl isobutyrate, or a negative control condition for 60 minutes. […] 66% (Olfr983) and 70% (Olfr145) of the neurons were positive for pS6 after acetophenone exposure, while only 11% of the neurons expressing Olfr171 were positive for pS6 after exposure to this compound.

OSNs expressing olfr378 = assay: as above; assay type: in vivo, mouse; parameters: key: y: neuronal activation (i.e. pS6 signal in a fraction of neuron exceeding 15% relative to controls); no pS6 signals; details: 5% acetophenone, 60 minutes
Experimental: as §3

OSNs expressing olfr490 = assay: as above; assay type: in vivo, mouse; parameters: key: y: neuronal activation (i.e. pS6 signal in a fraction of neuron exceeding 15% relative to controls); no pS6 signals; details: 5% acetophenone, 60 minutes
Experimental: as §3

OSNs expressing olfr750 = assay: as above; assay type: in vivo, mouse; parameters: key: y: neuronal activation (i.e. pS6 signal in a fraction of neuron exceeding 15% relative to controls); no pS6 signals; details: 5% acetophenone, 60 minutes
Experimental: as §3

OSNs expressing olfr1135 = assay: as above; assay type: in vivo, mouse; parameters: key: y: neuronal activation (i.e. pS6 signal in a fraction of neuron exceeding 15% relative to controls); no pS6 signals; details: 5% acetophenone, 60 minutes
Experimental: as §3

Olfr983 [4] = details: expressed in HEK cells; previously shown; read-out: EC50 as agonist of Olfr983; cited from earlier work

T1 sequence (Q60882 whole entry): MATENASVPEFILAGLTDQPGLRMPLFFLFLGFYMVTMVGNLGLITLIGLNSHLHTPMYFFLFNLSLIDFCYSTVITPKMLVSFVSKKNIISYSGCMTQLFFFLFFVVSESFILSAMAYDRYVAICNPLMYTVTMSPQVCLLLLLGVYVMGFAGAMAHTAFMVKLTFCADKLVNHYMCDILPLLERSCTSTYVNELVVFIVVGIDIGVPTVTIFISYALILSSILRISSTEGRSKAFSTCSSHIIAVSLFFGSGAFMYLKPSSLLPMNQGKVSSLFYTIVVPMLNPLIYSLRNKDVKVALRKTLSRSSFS

**Q.** With CC(=O)c1ccccc1 [acetophenone] as the compound, how does the “Olfr145 transcript decrease relative to controls (RNAseq)” value (olfr145) read?
**A.** The value was 74%.

**Q.** And the EC50 (Olfr1377 [1])?
**A.** Its EC50 is less than 50 µM.

**Q.** What about the “Olfr1377 transcript modulation (RNAseq)” value (Olfr1377 [2]) of the same compound?
**A.** The value was “downregulated”.

**Q.** What about the “Olfr160 transcript modulation (RNAseq)” value (Olfr160) of the same compound?
**A.** The value was “downregulated”.

**Q.** And the “Olfr169 transcript decrease relative to controls (RNAseq)” value (Olfr169)?
**A.** Its value is “over 80%”.

**Q.** What about the “Olfr983 transcript modulation (RNAseq)” value (Olfr983 [3]) of the same compound?
**A.** Its value is “downregulated”.

**Q.** What about the “olfr1350 ps6 positive” value (OSNs expressing olfr1350) of the same compound?
**A.** The value was “n”.

**Q.** And the “olfr378 ps6 positive” value (OSNs expressing olfr378)?
**A.** The value was “n”.

**Q.** What about the “olfr490 ps6 positive” value (OSNs expressing olfr490) of the same compound?
**A.** Its value is “n”.

**Q.** What about the “olfr750 ps6 positive” value (OSNs expressing olfr750) of the same compound?
**A.** The value was “n”.

**Q.** And the “olfr1135 ps6 positive” value (OSNs expressing olfr1135)?
**A.** The value was “n”.

**Q.** What about the EC50 (Olfr983 [4]) of the same compound?
**A.** Its EC50 is less than 50 µM.
